{"source": "patent US20060223884A1", "about": "“Compounds and compositions for use in the prevention and treatment of obesity and related syndromes” (priority 2005, published 2006)", "key": {"[1]": {"type": "in vivo", "text": "The objective of this study was to evaluate the effect of chronic administration of 4-hydroxyisoleucine (4-OH, compound 14a) on food consumption and body weight gain of DIO-mice. Both parameters were monitored for 1 week prior to the commencement of treatment, then for the 77 days of treatment and for an additional 12 days post-treatment.\nC57BL/6 mice were received at 7-8 weeks of age and fed a high fat diet (60% of calories from fat) for several weeks. A total of 32 animals were used in the study. The animals were distributed into 4 groups (3 treated, 1 control group, all on high fat diet). Each group was composed of 8 animals. The mice were randomized according to body weight and basal glycemia values following a 5±0.5 hour fasting period.\nThe test agent was dissolved in reverse osmosis water. 4-Hydroxyisoleucine was aliquoted and kept at 4° C. Control animals received reverse osmosis water twice daily (group 1). Mice from groups 2, 3 and 4 were treated twice daily with 4-hydroxyisoleucine (4-OH, compound 14a) at 100, 50, and 25 mg/kg, respectively. All groups were treated by oral gavage. Treatment commenced on Day 0 and ended on Day 77. Food consumption was measured daily and averaged on a weekly basis beginning one week before the start of treatment as shown in FIG. 15B. Similarly, food consumption was monitored during the treatment period and for 12 days after treatment was stopped as shown in FIGS. 15A and 15B."}, "[2]": {"type": "in vivo", "conditions": "ob/ob mice", "text": "The objective of this study was to evaluate the effect of chronic administration of 4-hydroxyisoleucine (4-OH, compound 14a) on food consumption and body weight gain in a genetic model of obesity, the ob/ob mouse. Body weight gain and food consumption were monitored for 1 week prior to the commencement of treatment, and then for the 56 days of treatment.\nA total of 16 animals were used in the study. The animals were distributed into 2 groups (1 treated, 1 control group, all on standard chow). Each group was composed of 8 animals. The mice were randomized according to body weight values.\nFor the eight weeks of treatment, the test agent was dissolved in reverse osmosis water. 4-hydroxyisoleucine was aliquoted and kept at 4° C. Control animals received reverse osmosis water twice daily (group 1). Mice from group 2 were treated twice daily with 4-OH at 100 mg/kg. All groups were treated by oral gavage. Treatment commenced on Day 0 and ended on Day 56 (FIGS. 16A and 16B). Food consumption was measured daily and averaged on a weekly basis beginning one week before the start of treatment as shown in FIG. 16B."}, "[3]": {"assay": "Body weight of DIO mice, 4-hydroxyisoleucine and Rimonabant alone and in combination (Example 7)", "type": "in vivo, C57BU6 mice", "conditions": "oral", "experimental": "C57BU6 mice were received at 7-8 weeks of age and fed a high fat diet (60% of calories from fat) for 8 weeks. Seven days prior to treatment, animals were randomized based on their body weight and fasted glycemia values into control and treated groups (n=8). The animals were treated by oral gavage twice daily with 4-OH (50 mg/kg of body weight; group 2), once daily in the afternoon with Rimonabant (0.1 mg/kg; group 3), and a combination of the two treatments (4-OH 50 mg/kg twice daily +Rimonabant 0.1 mg/kg once daily; group 4). The control group (group 1) received vehicle alone twice daily. After 3 weeks of treatment (day 22), the doses were increased as follows: 4-OH 100 mg/kg twice daily (group 2), Rimonabant 1 mg/kg once daily (group 3), and the combination (4-OH 100 mg/kg twice daily+Rimonabant 1 mg/kg once daily; group 4). The animals were treated for 1 week with these higher doses. Body weight of the mice was recorded every day for all groups from Day 6 to Day 28."}, "[4]": {"assay": "Prevention of weight gain in Wistar rats fed a high fat, high sucrose diet (Example 10)", "type": "in vivo", "conditions": "Wistar rats on HFHS diet, 100 mg/kg twice daily oral", "text": "The aim of this study was to evaluate the effect of chronic administration of 4-hydroxyisoleucine (4-OH, Compound 14a) on food consumption, tissue weight, and body weight gain of normal Wistar rats fed a high fat, high sucrose diet (HFHS).\nThe animals were acclimated for 1 week and fed standard chow prior to the commencement of treatment, then for the 28 days of the treatment the animals were fed a high fat, high sucrose diet (HFHS). A total of 30 animals were used in the study. The animals were distributed into 3 groups each composed of 10 animals: 1 group fed HFHS with treatment, 1 untreated control group fed standard chow, and 1 untreated group fed HFHS. Animals were housed separately and food consumption was monitored daily.\nFor the four weeks of treatment, the test compounds were dissolved in reverse osmosis water. 4-hydroxyisoleucine (4-OH) was aliquoted and kept at 4° C. Treated animals received twice daily oral administration of 4-OH at 100 mg/kg per dose. Control animals received water twice daily."}}, "note": "Like-named read-outs stand apart in the source and are kept apart here.", "data": [{"smiles": "C[C@@H]([C@H](C)O)[C@H](N)C(=O)O", "note": "[compound 14a, (2S,3R,4S)-4-Hydroxyisoleucine]", "values": [{"measurement": "effect on weight gain", "setting": "[1]; DIO mice, 100 mg/kg twice daily oral, Day 28 to Day 84", "result": "sustained and highly significant"}, {"measurement": "tolerability of treatments", "setting": "[1]; DIO mice, 25, 50 and 100 mg/kg twice daily, oral gavage, 77 days", "result": "well-tolerated"}, {"measurement": "weight gain", "setting": "[1]; DIO mice, 50 and 100 mg/kg twice daily oral, first three weeks of treatment", "result": "moderation of weight gain"}, {"measurement": "food consumption", "setting": "[1]; DIO mice, during the first week of treatment, paralleling the reduction in body weight gain", "result": "slight decrease in food consumption"}, {"measurement": "body weight gain and food consumption after cessation of treatment", "setting": "[1]; DIO mice, first week following cessation of treatment with 100 mg/kg", "result": "increase"}, {"measurement": "weight gain during the course of treatment", "setting": "[2]; 100 mg/kg twice daily oral", "result": "moderation of weight gain"}, {"measurement": "weight gain as compared to the control group", "setting": "[2]; 100 mg/kg twice daily oral, Day 21 to Day 56", "result": "significantly reduced"}, {"measurement": "tolerability of treatment", "setting": "[2]; 100 mg/kg twice daily, oral gavage, 56 days", "result": "well tolerated"}, {"measurement": "food consumption", "setting": "[2]; first three weeks of treatment but not later on", "result": "slight decrease in food consumption"}, {"measurement": "body weight gain after 21 days (low dosage treatment)", "setting": "[3]; 4-OH 50 mg/kg twice daily, Rimonabant 0.1 mg/kg once daily, alone or in combination", "result": "slight reduction of body weight gain"}, {"measurement": "body weight after dose increase (day 22 to 28)", "setting": "[3]; 4-OH 100 mg/kg twice daily, Rimonabant 1 mg/kg once daily, alone or in combination (combination compared to each compound separately)", "result": "immediately reduced the body weight"}, {"measurement": "epididymal and peri-renal adipose tissue", "setting": "[4]; 28 days", "result": "reduction of epididymal and peri-renal adipose tissue"}, {"measurement": "tolerability of treatment", "setting": "[4]; 28 days", "result": "well tolerated"}, {"measurement": "weight gain", "setting": "[4]; 28 days", "result": "Moderation of weight gain"}, {"measurement": "muscle, brown fat, and organ weight", "setting": "[4]; 28 days (data not shown)", "result": "not affected"}, {"measurement": "food consumption", "setting": "[4]; 28 days, could not account for the differences in weight gain", "result": "reduction in food consumption"}]}]}
